This is an account of results in patent publication US4871744A, “Certain 2,3-dihydro-indole-1-carboxamido-N-[8-azabicyclo(3.2.1)octan-3-yl]d e” (priority 1988, dated 1989).

Where a name gives a salt, the structure may show the parent alone. Some results are limits rather than exact numbers.

The first assay has as its system von Bezold-Jarisch reflex evoked by 5-HT. Put plainly: Antagonism of the von Bezold-Jarisch reflex evoked by 5-HT in the anaesthetised rat. It is filed as in vivo. The conditions noted are these: Rattus norvegicus, iv; urethane-anaesthetised male rats; 5-HT-evoked changes in heart rate; 5-HT usually 6 μg/kg i.v.; read-out: ED50 (concentration required to reduce the 5HT-evoked response to 50% of the control response). How it is done:
Antagonism of the von Bezold-Jarisch reflex
The compounds were evaluated for antagonism of the von Bezold-Jarisch reflex evoked by 5-HT in the anaesthetised rat according to the following method:
Pharmacol. 2, 229-245 (1980). A submaximal dose of 5-HT (usually 6 μg/kg) was given repeatedly by the intravenous route and changes in heart rate quantified. Compounds were given intravenously and the concentration required to reduce the 5HT-evoked response to 50% of the control response (ED50) was then determined.
In the case of `CN1[C@@H]2CCC[C@H]1C[C@@H](NC(=O)N1CCc3ccccc31)C2` [Example 1, endo-N-(9-Methyl-9-azabicyclo[3.3.1]non-3-yl)-2,3-dihydroindole-1-carboxamide], the ED50 turned out to be 12.5 µg/kg.

`CN1[C@@H]2CC[C@H]1C[C@@H](NC(=O)N1CCc3ccccc31)C2` [Example 2, endo-N-(8-Methyl-8-azabicyclo[3.2.1]oct-3-yl)-2,3-dihydroindole-1-carboxamide]: the ED50 turned out to be 1.4 µg/kg. For the compound `CN1[C@@H]2CC[C@H]1C[C@@H](OC(=O)N1CCc3ccccc31)C2` [Example 3, endo(8-Methyl-8-azabicyclo[3.2.1]oct-3-yl)-2,3-dihydroindole carboxylic acid ester], the ED50 amounted to 5 µg/kg. Same read-out and setting: the result for `CC1CN(C(=O)N[C@H]2C[C@H]3CC[C@@H](C2)N3C)c2ccccc21` (stereo partly drawn) [Example 4, endo-N-(8-Methyl-8-azabicyclo[3.2.1]oct-3-yl)-2,3-dihydro-3-methylindole-1-carboxamide hydrochloride] reads 3 µg/kg. On the same count and under the same terms, under `CN1[C@@H]2CC[C@H]1C[C@@H](NC(=O)N1CC(C)(C)c3ccccc31)C2` [Example 5, endo-N-(8-Methyl-8-azabicyclo[3.2.1]oct-3-yl)-2,3-dihydro-3,3-dimethylindole-1-carboxamide] stands 0.58 µg/kg; under `Cc1cn(C(=O)N[C@H]2C[C@H]3CC[C@@H](C2)N3C)c2ccccc12` [Example 6, endo-N-(8-Methyl-8-azabicyclo[3.2.1]oct-3-yl)-3-methylindole-1-carboxamide hydrochloride], 1.6 µg/kg; under `CCN1[C@@H]2CC[C@H]1C[C@@H](NC(=O)N1CCc3ccccc31)C2` [Example 7, endo-N-(8-Ethyl-8-azabicyclo[3.2.1]oct-3-yl)-2,3-dihydroindole-1-carboxamide], above 10 µg/kg. Take `CN1[C@@H]2CC[C@H]1C[C@@H](NC(=O)N1CCc3cc(F)ccc31)C2` [Example 8, endo-N-(8-Methyl-8-azabicyclo[3.2.1]oct-3-yl)-5-fluoro-2,3-dihydroindole-1-carboxamide hydrochloride]: the ED50 came to 17 µg/kg.

With `CN1[C@@H]2CC[C@H]1C[C@@H](NC(=O)N1CCc3cc(Cl)ccc31)C2` [Example 9, endo-N-(8-Methyl-8-azabicyclo[3.2.1]oct-3-yl)-2,3-dihydro-5-chloroindole-1-carboxamide], the ED50 is above 10 µg/kg.

Consider `COc1ccc2c(c1)CCN2C(=O)N[C@H]1C[C@H]2CC[C@@H](C1)N2C` [Example 10, endo-N-(8-Methyl-8-azabicyclo[3.2.1]oct-3-yl)2,3-dihydro-5-methoxyindole-1-carboxamide], for which the ED50 worked out at 7 µg/kg. Same read-out and setting: the result for `CN1[C@@H]2CC[C@H]1C[C@@H](NC(=O)n1ccc3ccccc31)C2` [Example 11, endo-N-(8-Methyl-8-azabicyclo[3.2.1]oct-3-yl)indole-1-carboxamide hydrochloride] reads 7.7 µg/kg; that for `Cl.O=C(NC1CN2CCC1CC2)N1CCc2ccccc21` (stereo not shown) [Example 12, N-(1-Azabicyclo[2.2.2]oct-3-yl)2,3-dihydroindole-1-carboxamide hydrochloride], 4.4 µg/kg; that for `CCC1CN(C(=O)N[C@H]2C[C@H]3CC[C@@H](C2)N3C)c2ccccc21` (stereo partly drawn) [Example 14, endo-N-(8-Methyl-8-azabicyclo[3.2.1]oct-3-yl)-2,3-dihydro-3-ethylindole-1-carboxamide hydrochloride], 1 µg/kg. On the same count and under the same terms, the result for `CCc1cn(C(=O)N[C@H]2C[C@H]3CC[C@@H](C2)N3C)c2ccccc12` [Example 15, endo-N-(8-Methyl-8-azabicyclo[3.2.1]-oct-3-yl)-3-ethylindole-1-carboxamide hydrochloride] reads 2 µg/kg. For `CN1[C@@H]2CC[C@H]1C[C@@H](NC(=O)N1CCc3cc([N+](=O)[O-])ccc31)C2` [Example 16, endo-N-(8-Methyl-8-azabicyclo[3.2.1]oct-3-yl)-2,3-dihydro-5-nitroindole-1-carboxamide], the ED50 is above 10 µg/kg.

In the case of `CN1[C@@H]2CC[C@H]1C[C@@H](NC(=O)N1CCc3ccc([N+](=O)[O-])cc31)C2` [Example 17, endo-N-(8-Methyl-8-azabicyclo[3.2.1]oct-3-yl)-2,3-dihydro-6-nitroindole-1-carboxamide hydrochloride], the ED50 is above 10 µg/kg. The same measure, in the same setting: under `CC1(C)CN(C(=O)NC2CN3CCC2CC3)c2ccccc21` (stereo not shown) [Example 18, N-(1-Azabicyclo[2.2.2]oct-3-yl)2,3-dihydro-3,3-dimethylindole-1-carboxamidehydrochloride] stands 5.3 µg/kg; under `CC1Cc2ccccc2N1C(=O)N[C@H]1C[C@H]2CC[C@@H](C1)N2C` (stereo partly drawn) [Example 19, (endo)-N-(8-Methyl-8-azabicyclo[3.2.1]oct-3-yl)-2,3-dihydro-2-methylindole-1-carboxamide hydrochloride], 0.79 µg/kg; under `CC1c2ccccc2N(C(=O)N[C@H]2C[C@H]3CC[C@@H](C2)N3C)C1C` (stereo partly drawn) [Example 20, (endo)-N-(8-Methyl-8-azabicyclo[3.2.1]oct-3-yl)-2,3-dihydro-2,3-dimethylindole-1-carboxamide], 0.53 µg/kg. On the same count and under the same terms, under `CC1N(C(=O)N[C@H]2C[C@H]3CC[C@@H](C2)N3C)c2ccccc2C1(C)C` (stereo partly drawn) [Example 21, (endo)-N-(8-Methyl-8-azabicyclo[3.2.1]oct-3-yl)-2,3-dihydro-2,3,3-trimethylindole-1-carboxamide hydrochloride] stands 1.4 µg/kg; under `CC(C)C1CN(C(=O)N[C@H]2C[C@H]3CC[C@@H](C2)N3C)c2ccccc21` (stereo partly drawn) [Example 22, (endo)-N-(8-Methyl-8-azabicyclo[3.2.1]oct-3-yl)-2,3-dihydro-3-isopropylindole-1-carboxamide hydrochloride], 0.56 µg/kg.

The assay is the same for the next values; noted with them: i.v.; urethane-anaesthetised male rats; 5-HT-evoked changes in heart rate; 5-HT usually 6 μg/kg i.v.
As for `O=C(OC1CN2CCC1CC2)N1CCc2ccccc21` (stereo not shown) [Example 13, N-(1-Azabicyclo[2.2.2]oct-3-yl)-2,3-dihydroindole-1-carboxylic acid ester], the “ED50 (concentration required to reduce the 5HT-evoked response to 50% of the control response)” value was found to be 3.9 µg/kg.
